US7229966B2, “Compositions and methods for enhanced mucosal delivery of Y2 receptor-binding peptides and methods for treating and preventing obesity” (Nastech Pharmaceutical Company Inc., priority 2002, dated 2007)
Where two headings read alike, the source gives them in different places.

How the values were obtained:
ciliary motility = conditions: cited from earlier work
[1] = aqueous solution at physiologic pH; cited from earlier work
aminopeptidases = conditions: cited from earlier work
[2] = 0.5 mg/mL in phosphate buffer, pH 7.4; vortex mixing 1 min; cited from earlier work
[3] = anesthetized rats, cited from earlier work

Compound: 2-alkyl-4-hydroxyquinolines [pyo compound]
- concentration producing ciliostasis / inhibiting ciliary motility (ciliary motility): 50 µg/mL

Compound: CCN(CC)/[N+]([O-])=N/O.CCNCC [diethylamine/NO]
- NO release time [1]: < 3 min

Compound: CC(C)CC(N)B(O)O (stereo not drawn) [boro-leucine]
- effectiveness in enzyme inhibition relative to bestatin (aminopeptidases): more than 100 times
- effectiveness in enzyme inhibition relative to puromycin (aminopeptidases): more than 1000 times

Compound: NCCN(CCN)/[N+]([O-])=N/O [diethylenetriamine/NO (DETANO), diethylenetriamine/NO]
- NO release time [1]: approximately 20 hours

Compound: human growth hormone (hGH): peptide hormone human growth hormone
- drug precipitated as insoluble aggregates [2]: 67%
- nasal bioavailability ([3]; with N-acetyl-L-cysteine (ACS)): 12.2%
- nasal bioavailability ([3]; without N-acetyl-L-cysteine): 7.5%

Compound: CC(C(=O)[O-])c1ccc(NC(=O)c2ccccc2O)cc1.[Na+] (stereo not drawn) [Sodium Salt of Carrier B, Sodium 2-(4-(N-salicyloyl)aminophenyl)propionate]
- melting point: 236 to 238 °C
